Measurements reported in PMC6160931, “Processing Impact on Performance of Solid Dispersions” (Pharmaceutics, 2018).
Converted amounts (≈) assume the structure as drawn. Structures can show the parent of a compound that is named as a salt. Where two headings read alike, the source gives them in different places.

Legend:
Type in all cases: physicochemical
[1] = Solubility in H2O, SGF and FaSSIF
Excerpt: (§1) Table 1 Physical/chemical properties of MK-A.

[2] = Log P (free base)
Excerpt: as §1

[3] = Solid-state chemical/physical stability of drug forms; details: chemical and physical
Excerpt: as §1

[4] = Chemical stability under accelerated conditions (% area)
Method: The stability of various formulations of MK-A was evaluated under accelerated conditions (Table 4). Levels of potency reduction right after the solid dispersion preparation were 1.7% and 4.6% for spray drying and hot melt extrusion, respectively. The higher potency reduction in HME was attributed to the higher processing temperature of the HME process (~140 °C) at which thermal degradation of the drug occurred. The potency of the amorphous form of active was further reduced after 2 weeks storage at 40 °C/75% relative humidity (RH) conditions in closed glass vials by up to as much as 8.5% loss of potency in the solid dispersion via HME.

[5] = Fasted Simulated Small Intestine Fluid (FaSSIF)

solubility [1, 5] [µg/mL]	solubility ([1]; simulated gastric fluid (SGF), simulated gastric fluid, Simulated Gastric Fluid (SGF), read-out: Solubility) [µg/mL]	solubility ([1]; water, pH 3.5, water, H2O (pH = 3.5), read-out: Solubility) [µg/mL]	logP [2]	solubility ([1]; Simulated Gastric Fluid (SGF)) [µg/mL]	solubility ([1]; water, pH 7.3, water, H2O (pH = 7.3), read-out: Solubility) [µg/mL]	2 Weeks at 40 °C/75% RH Closed (% Area) ([4]; 2 weeks, 40 °C/75% RH, closed glass vials)	Initial (% Area) ([4]; initial, after preparation)	Log P (free base) [2]	Compound	Stability [3]
21	525	661	4.5						CS[C@@]1(C(=O)Nc2ccc3[nH]nc(-c4ccc(OC(C)C)nc4)c3c2)CCN(CC(=O)N2CC=C(c3ccc(-c4ncn(C)n4)cc3)CC2)C1 [MK-A HCl salt]	Chemically stable in the solid-state; Physically stable at various temperatures and humidity conditions but sensitive to mechanical stress
2 (≈ 2.89 µM)				907 (≈ 1310 µM)	0.3 (≈ 0.434 µM)	98.8	98.8	4.5	CS[C@@]1(C(=O)Nc2ccc3[nH]nc(-c4ccc(OC(C)C)nc4)c3c2)CCN(CC(=O)N2CC=C(c3ccc(-c4ncn(C)n4)cc3)CC2)C1 [MK-A free base]	Chemically and physically stable
